The record followed here is patent US10183936B2, “Hepatitis B core protein allosteric modulators” (priority 2014, dated 2019).

Series [1] deals with HBV viral production in AD38 cells. Briefly: Viral load production in AD38 cells by quantitative PCR of the HBV core sequence in supernatant. Particulars: Hepatitis B virus, 144 h; 10 μM compound, 6 days at 37° C., viral load in supernatant compared against DMSO control wells; read-out: AD38 Viral Load (CpAM/DMSO %) at 10 μM. It counts as cell-based. On the procedure: (§1) Example 56: Assay Measuring Activity of Compounds on Viral Production in and on Viability of AD38 Cells
(§2) AD38 cells were then re-suspended with 10 mL of Treatment Medium and counted. Wells of a collagen coated 96-well NUNC microtiter plate were seeded at 50,000/well in 180 μL of Treatment Medium, and 20 μL of in treatment media with either 10% DMSO (Control) or a 10× solution of compound in 10% DMSO was added. Plates were incubated for 6 days at 37° C.
Viral load production was assayed by quantitative PCR of the core sequence. Briefly, 5 μL of clarified supematant was added to a PCR reaction mixture that contained forward primers HBV-f 5′-CTGTGCCTTGGGTGGCTTT-3′, Reverse primers HBV-r 5′-[…]-3′ and Fluorescent TaqMan™ Probes HBV-probe 5′-FAM/AGCTCCAAA/ZEN/[…]/3IABkFQ-3′ in Quanta Biosciences PerfeCTa® qPCR Toughmix®, and was subsequently on an Applied Biosystems VIIA7 in a final volume of 20 μL. The PCR mixture was incubated at 45° C. for 5 minutes, then 95° C. for 10 min, followed by 40 cycles of 10 seconds at 95° C. and 20 seconds at 60° C. Viral load was quantitated against known standards by using ViiA™ 7 Software. Viral load in the supematant from wells with treated cells were compared against viral load in supernatant from DMSO control wells (≥3 per plate).

For a further series, the system named is AD38 cells. Kind of series: Viability of AD38 cells (Promega CellTiter-Glo) at the end of compound treatment. It is filed as cell-based. The settings on record: 10 μM compound, 6 days, luminescence normalized against DMSO control wells (controls being 100%). On the procedure:
as §1, §2
At the end of compound treatment period cell viability was assessed using a Promega CellTiter-Glo protocol. All supernatant was removed the previously treated 96-well microtiter plate, and 50 μL Tetracycline-free treatment medium (DMEM/F12 (1:1), lx Pen/step (cat#: 30-002-CL, Mediatech, Inc), with 2% FBS, Tet-system approved (cat#: 631106, Clontech), and 1% DMSO was added back to each well. Another 50 μL of CellTiter-Glo reagent solution (Promega, G7573) was then added at room temperature and the contents mixed for 2 minutes on an orbital shaker to induce cell lysis. This was followed by incubation at room temperature for 10 minutes to stabilize the luminescent signal. The luminescence was recorded for 0.2 seconds per well on a Tecan multimode platereader (Infinite M1000 pro). The luminescent signal from each well was normalized against that of untreated (DMSO) control wells. All results were reported percent viability (with controls being 100%).
(ATP-based viability assays read luminescence as a measure of living cells.)

Turning to `O=C(Nc1cccc(-c2ccccc2)c1)c1ccc2c(c1)NC(=O)c1cc(F)ccc1S2` [Compound 1333], the activity at 10 µM in series [1] was determined as 20%. The “AD38 Viability Normalized Result (CPAM/DMSO %) at 10 μM” value in the series with AD38 cells is on record as 73%.
On the same counts, the results for `CN(C)S(=O)(=O)c1ccc(CCNC(=O)c2ccc3c(c2)NC(=O)c2ccccc2S3(=O)=O)cc1` [Compound 1619] are 12% and 122%.
Take `CN1c2ccc(C(=O)NCCc3ccc(-c4ccccc4)cc3)cc2NC(=O)c2ccccc21` [Compound 1521]: the activity at 10 µM in series [1] stood at 1%. In addition, the “AD38 Viability Normalized Result (CPAM/DMSO %) at 10 μM” value in the series with AD38 cells is given as 22%.
As to `O=C(NCC12CC3CC(CC(C3)C1)C2)c1ccc2c(c1)NC(=O)c1ccccc1S2` [Compound 1189], the activity at 10 µM in series [1] came out at 1%. Besides, in the series with AD38 cells, the “AD38 Viability Normalized Result (CPAM/DMSO %) at 10 μM” value worked out at 85%.
For `O=C(NCc1cncs1)c1ccc2c(c1)NC(=O)c1c(F)cccc1S2` [Compound 1541] the same measures were 11% and 117%.
For `O=C(NCCc1cccnc1)c1ccc2c(c1)NC(=O)c1ccccc1S2(=O)=O` [Compound 1448] the same measures were 3% and 85%.
For `O=C(NCCc1ccc(-c2cnn[nH]2)cc1)c1ccc2c(c1)NC(=O)c1ccccc1S2` [Compound 1291] the same measures were 1% and 102%.
`O=C(NCc1ccc(-c2ccccc2)cc1)c1ccc2c(c1)NC(=O)c1ccccc1S2` [Compound 1112]: in series [1], the activity at 10 µM amounted to 4%. Besides, the “AD38 Viability Normalized Result (CPAM/DMSO %) at 10 μM” value with AD38 cells worked out at 73%.
For `Cc1c(C(=O)NCCc2ccc(S(=O)(=O)N(C)C)cc2)ccc2c1NC(=O)c1ccccc1S2` [Compound 1517] the same measures were 2% and 78%.
On the same counts, the results for `O=C(NCCC1CCC(F)(F)CC1)c1ccc2c(c1)NC(=O)c1ccccc1S2` [Compound 1216] are 1% and 125%.
For the molecule `O=C(NCCC1CCCCC1)c1ccc2c(c1)NC(=O)c1ccccc1S2` [Compound 1105], the activity at 10 µM in series [1] came to 1%. Further, the “AD38 Viability Normalized Result (CPAM/DMSO %) at 10 μM” value in the series with AD38 cells came to 101%.
On to `O=C(NCc1cnc(Cl)s1)c1ccc2c(c1)NC(=O)c1ccccc1S2` [Compound 1589], for which, in series [1], the activity at 10 µM was 1%. Moreover, the “AD38 Viability Normalized Result (CPAM/DMSO %) at 10 μM” value in the series on AD38 cells is recorded as 85%.
For `O=C1Nc2cc(S(=O)(=O)NCc3cncs3)ccc2Sc2ccccc21` [Compound 1556] the same measures were 67% and 86%.
For `NS(=O)(=O)c1ccc(CCNC(=O)c2ccc3c(c2)NC(=O)c2ccccc2S3)cc1` [Compound 1101] the same measures were 15% and 107%.
As to `O=C(NCCc1cccnc1)c1ccc2c(c1)NC(=O)c1ccccc1N2Cc1ccccc1` [Compound 1475], the activity at 10 µM in series [1] was 47%. In addition, the “AD38 Viability Normalized Result (CPAM/DMSO %) at 10 μM” value with AD38 cells was 107%.
On the same counts, the results for `O=C(Nc1ccncc1)c1ccc2c(c1)NC(=O)c1ccc(F)cc1S2` [Compound 1366] are 12% and 93%.
On the same counts, the results for `O=C(NCc1cnccn1)c1ccc2c(c1)NC(=O)c1ccccc1S2` [Compound 1586] are 23% and 112%.
For `O=C(Nc1ccc(F)cc1F)c1ccc2c(c1)NC(=O)c1cc(F)ccc1S2` [Compound 1318] the same measures were 14% and 70%.
In the case of `Cc1ccc2c(c1)C(=O)Nc1cc(C(=O)NCCC3CCCCC3)ccc1S2` [Compound 1274], the activity at 10 µM in series [1] amounted to 11%. Also, the “AD38 Viability Normalized Result (CPAM/DMSO %) at 10 μM” value with AD38 cells worked out at 88%.
On the same counts, the results for `CC(CNC(=O)c1ccc2c(c1)NC(=O)c1ccccc1S2)c1ccccc1` (stereo not drawn) [Compound 1212] are 1% and 72%.
On the same counts, the results for `CCOC(=O)C(NC(=O)c1ccc2c(c1)NC(=O)c1cc(F)ccc1S2)c1ccncc1` (stereo not drawn) [Compound 1405] are 14% and 94%.
On the same counts, the results for `C[C@@H](O)CNC(=O)c1ccc2c(c1)NC(=O)c1ccccc1S2` [Compound 1221] are 19% and 106%.
As to `O=C(NCc1cncnc1)c1ccc2c(c1)NC(=O)c1cccc(F)c1S2` [Compound 1390], the activity at 10 µM in series [1] worked out at 2%. For the same molecule, the “AD38 Viability Normalized Result (CPAM/DMSO %) at 10 μM” value in the series with AD38 cells is listed as 92%.
Take `O=C(NCCC12CC3CC(CC(C3)C1)C2)c1ccc2c(c1)NC(=O)c1ccccc1S2` [Compound 1170]: the activity at 10 µM in series [1] was found to be 1%. Moreover, in the series with AD38 cells, the “AD38 Viability Normalized Result (CPAM/DMSO %) at 10 μM” value was 95%.
As to `CN(C)S(=O)(=O)c1ccc(CCNC(=O)c2ccc3c(c2)NC(=O)c2ccccc2N3Cc2ccccc2)cc1` [Compound 1512], the activity at 10 µM in series [1] was 27%. In addition, the “AD38 Viability Normalized Result (CPAM/DMSO %) at 10 μM” value in the series with AD38 cells was 99%.
On the same counts, the results for `O=C(NCCc1ccc(-c2ccccc2)cc1)c1ccc2c(c1)NC(=O)c1c(F)cccc1S2` [Compound 1465] are 39% and 106%.
On the same counts, the results for `O=C(NCCOc1ccccc1)c1ccc2c(c1)NC(=O)c1ccccc1S2` [Compound 1192] are 3% and 81%.
As to `O=C(Nc1ccncc1)c1ccc2c(c1)NC(=O)c1ccccc1N2Cc1ccccc1` [Compound 1494], in series [1], the activity at 10 µM is 115%. Further, in the series with AD38 cells, the “AD38 Viability Normalized Result (CPAM/DMSO %) at 10 μM” value stood at 60%.
On the same counts, the results for `O=C(NCCC1CCCCC1)c1ccc2c(c1)NC(=O)c1ccccc1S2(=O)=O` [Compound 1206, N-(2-cyclohexylethyl)-11-oxo-10, 11-dihydrodibenzo [b,f] [1,4] thiazepine-8-carboxamide 5,5-dioxide] are 10% and 106%.
`O=C(NCCc1cncnc1)c1ccc2c(c1)NC(=O)c1cccc(F)c1S2` [Compound 1409]: the activity at 10 µM in series [1] came to 4%. Also, the “AD38 Viability Normalized Result (CPAM/DMSO %) at 10 μM” value in the series with AD38 cells was found to be 83%.
For `CC(=O)N1CCC(CNC(=O)c2ccc3c(c2)NC(=O)c2ccccc2S3)CC1` [Compound 1601, N-((1-acetylpiperidin-4-yl)methyl)-11-oxo-10, 11-dihydrodibenzo [b,f] [1,4] thiazepine-8-carboxamide] the same measures were 62% and 106%.
As for `O=C(NCCc1ccccn1)c1ccc2c(c1)NC(=O)c1cc(F)ccc1S2` [Compound 1310], in series [1], the activity at 10 µM worked out at 1%. Also, in the series with AD38 cells, the “AD38 Viability Normalized Result (CPAM/DMSO %) at 10 μM” value was 89%.
As to `O=C1Nc2cc(S(=O)(=O)N3CCCC3)ccc2Sc2ccccc21` [Compound 1432], in series [1], the activity at 10 µM came to 79%. For the same molecule, in the series on AD38 cells, the “AD38 Viability Normalized Result (CPAM/DMSO %) at 10 μM” value is given as 91%.
In the case of `O=C(NCCc1ccc2ccccc2c1)c1ccc2c(c1)NC(=O)c1ccccc1S2` [Compound 1110], the activity at 10 µM in series [1] came out at 2%. Further, the “AD38 Viability Normalized Result (CPAM/DMSO %) at 10 μM” value in the series on AD38 cells came out at 119%.
On the same counts, the results for `O=C(NCCc1ccc(-n2nccn2)cc1)c1ccc2c(c1)NC(=O)c1ccccc1S2(=O)=O` [Compound 1626] are 0% and 118%.
For `CCOc1cccc(CCNC(=O)c2ccc3c(c2)NC(=O)c2ccccc2S3)c1` [Compound 1157] the same measures were 1% and 48%.
For `O=C(Nc1cccc(-c2cccnc2)c1)c1ccc2c(c1)NC(=O)c1ccccc1S2(=O)=O` [Compound 1629], the activity at 10 µM in series [1] came to 3%. For the same molecule, the “AD38 Viability Normalized Result (CPAM/DMSO %) at 10 μM” value with AD38 cells is 95%.
On to `O=C(Nc1cccc(F)c1)c1ccc2c(c1)NC(=O)c1cc(F)ccc1S2` [Compound 1317], for which, in series [1], the activity at 10 µM amounted to 50%. The “AD38 Viability Normalized Result (CPAM/DMSO %) at 10 μM” value in the series on AD38 cells stood at 95%.
On the same counts, the results for `O=C(NCCc1ccc(-c2ccccc2)cc1)c1ccc2c(c1)NC(=O)c1ccccc1N2Cc1ccccc1` [Compound 1483] are 65% and 98%.
